Read-outs that look alike come from different tables or passages of the source.
Experiments:
[1] = system: LTB4 production in isolated human polymorphonuclear leucocytes (PMN); test: inhibition of LTB4 production in isolated human polymorphonuclear leukocytes (PMN), A23187-stimulated, radioimmunoassay; format: cell-based; details: Leucocyte, 5 min, 5 min at 37° C.
Source text: A. Preparation of Human PMN
Human blood is obtained by antecubital venepuncture from consenting volunteers who denied having taken medication within the previous 7 days. The blood is immediately added to 10% (v/v) trisodium citrate (0.13M) or 5% (v/v) sodium heparin (1000 IU/mL). PMNs are isolated from anticoagulated blood by dextran sedimentation and centrifugation through Ficoll Hypaque (specific gravity 1.077), essentially as described by Boyum. (Boyum, A., Scand. J. Clin. Lab. Invest 1968, 21 (Supp 97), 77). Contaminating erythrocytes are removed by lysis following exposure to ammonium chloride (0.16M) in Tris buffer (pH 7.65), and the PMNs resuspended at 5×10^5 cells/mL in HEPES (15 mM) buffered Hanks balanced salt solution containing Ca^2+ (1.4 mM) and Mg^2+ (0.7 mM), pH 7.4. Viability is assessed by Trypan blue exclusion and is typically greater than 98%.
B. Generation and Radiommumoassay of LTB4
PMNs 0.5 mL; 2.5×10^5 cells) are placed in plastic tubes and incubated (37° C., 2 min) with test compounds at the desired concentration or vehicle control (DMSO, final concentration 0.2%). The synthesis of leukotriene B4 (LTB4) is initiated by the addition of calcium ionophore A23187 (final concentration 10 μM) or vehicle on control samples and allowed to proceed for 5 minutes at 37° C. The reactions are then terminated by the addition of cold methanol (0.25 mL) and samples of the entire PMN reaction mixture are removed for radiommunoassay of LTB4.
Samples (50 μl) of authentic LTB4 of known concentration in radiommunoassay buffer (RIA) buffer (potassium phosphate 1 mM; disodium EDTA 0.1 mM; Thimerosal 0.025 mM; gelatin 0.1%, pH 7.3) or PMN reaction mixture diluted 1:1 with RIA buffer are added to reaction tubes.
Thereafter [3H]LTB4 (10 nCu in 100 μl RIA buffer) and LTB4 antiserum (100 μL of a 1:3000 dilution in RIA buffer) are added and the tubes vortexed. Reactants are allowed to equilibrate by incubation overnight at 4° C. To separate antibody bound from free LTB4, aliquots (50 μL) of activated charcoal (3% activated charcoal in RIA buffer containing 0.25% Dextran T-70) were added, the tubes vortexed, and allowed to stand at room temperature for 10 minutes prior to centrifugation (1500×g; 10 min; 4° C.). The supernatents containing antibody-bound LTB4 are decanted into vials and Aquasol 2 (4 mL) is added. Radioactivity is quantified by liquid scintillation spectrometry. […] The specificity of the antiserium and the sensitivity of the procedure have been described in detail elsewhere. (Rokach, J.; Hayes, E. C.; Girard, Y.; Lombardo. D. L.; Maycock, A. L.; Rosenthal, A. S.; Young, R. N.; Zamboni, R.; Zweerink, H. J. Prostaglandins Leukotrienes and Medicine 1984, 13, 21). The amount of LTB4 produced in test and control (approx. 20 ng/10^6 cells) samples are then calculated. Inhibitory dose response curves are constructed using a four-parameter algorithm and from these the IC50 values are determined.

[2] = system: leukotriene biosynthesis in human polymorphonuclear leukocytes; details: known inhibitors of leukotriene biosynthesis; cited from earlier work
[3] = Homo sapiens, calcium ionophore A23187 10 μM, 2.5×10^5 cells, read-out: Human Polymorphonuclear Leucocyte Activity IC50
[4] = standard compounds, human PMN, A23187 10 μM, read-out: IC50 values for LTB4 inhibition

Compound | IC50 [1, 3] | activity in the human polymorphonuclear leukocytes assay [2] | IC50 [1, 4]
Oc1cc2c(cc1SCCCc1ccccc1)OCC2 [H S(CH2)3 C6 H5, 2,3-dihydro-6-(3-phenylpropyl)thio-5-benzofuranol] | 28 nM | – | –
CCCc1cc2c(c(Br)c1O)CCO2 [Br CH2 CH3 CH3, 2,3-dihydro4-bromo-6-propyl-5-benzofuranol] | 49 nM | – | –
COC(=O)c1ccccc1OCCCOc1cc2c(cc1O)CCO2 [H O(CH2)3 OC6 H5-2-CO2 CH3, 2-(3-((2,3-dihydro-5-hydroxy-6-benzofuranyl)oxy)propoxy)benzoic acid methyl ester] | 65 nM | – | –
COC(=O)Cc1ccc(OCCCOc2cc3c(cc2O)CCO3)cc1 [H O(CH2)3 OC6 H5-4-CH2 CO2 CH3, 4-(3-((2,3-dihydro-5-hydroxy-6-benzofuranyl)oxy)propoxy)benzeneacetic acid methyl ester] | 72 nM | – | –
CCCc1ccc(OCCCc2cc3c(cc2O)CCO3)cc1 [H (CH2)3 OC6 H4-4-(CH2)2 CH3, 2,3-dihydro 6-(3-(4-propylphenoxy)propyl)-5-benzofuranol] | 9 nM | – | –
Cc1c(O)c(CCCSc2ccccc2)cc2c1CCO2 [CH3 (CH2)3 SC6 H5, 2,3-dihydro-4-methyl-6-(3-(phenylthio)propyl)5-benzofuranol] | 19 nM | – | –
Oc1cc2c(cc1CCCOc1ccc(F)cc1)OCC2 [H (CH2)3 OC6 H4-4-F, 2,3-dihydro-6-(3-(4-fluorophenoxy)propyl)5-benzofuranol] | 28 nM | – | –
O=C1CCN(c2ccccc2)N1 [phenidone, reference compound] | – | active | 9250 nM
Oc1cc2c(cc1CCCOc1ccccc1)OCC2 [H (CH2)3 OC6 H5, 2,3-dihydro-6-(3-phenoxypropyl)-5-benzofuranol] | 57 nM | – | –
Oc1cc2c(cc1CCCSc1ccccc1)OCC2 [H (CH2)3 SC6 H5, 2,3-dihydro-6-(3-(phenylthio)propyl)-5-benzofuranol] | 19 nM | – | –
Oc1cc2c(cc1CCCOc1ccc(Cl)cc1)OCC2 [H (CH2)3 OC6 H4-4-Cl, 2,3-Dihydro-6-(3-(4-chlorophenoxy)propyl)-5-benzofuranol] | 55 nM | – | –
COC(=O)c1cccc(OCCCOc2cc3c(cc2O)CCO3)c1 [H O(CH2)3 OC6 H5-3-CO2 CH3, 3-(3-((2,3-dihydro-5-hydroxy-6-benzofuranyl)oxy)propoxy)benzoic acid methyl ester] | 56 nM | – | –
OCCc1cccc(OCCCc2cc3c(cc2O)CCO3)c1 [H (CH2)3 OC6 H4-3-(CH2)2 OH, 2,3-Dihydro-6-(3-(3-(2-hydroxyethyl)-phenoxy)propyl)-5-benzofuranol] | 77 nM | – | –
Oc1cc2c(cc1SCCc1ccccc1)OCC2 [H S(CH2)2 C6 H5, 2,3-dihydro 6 (2 phenylethyl)thio-5-benzofuranol] | 66 nM | – | –
OCCc1ccc(OCCCc2cc3c(cc2O)CCO3)cc1 [H (CH2)3 OC6 H4-4-(CH2)2 OH, 2,3-dihydro-6-(3-(4-(2-hydroxyethyl)phenoxy)propyl)-5-benzofuranol] | 41 nM | – | –
CC(Cc1ccc(O)c(O)c1)C(C)Cc1ccc(O)c(O)c1 (centres unmarked) [nordihydroguaiacetic acid, reference compound] | – | active | 86 nM
COC(=O)c1ccc(OCCCOc2cc3c(cc2O)CCO3)cc1 [H O(CH2)3 OC6 H5-4-CO2 CH3, 4-(3-((2,3-dihydro-5-hydroxy-6-benzofuranyl)oxy)propoxy)benzoic acid methyl ester] | 71 nM | – | –
Oc1cc2c(cc1OCCCc1ccccc1)OCC2 [H O(CH2)3 C6 H5, 2,3-dihydro-6-(3-phenylpropoxy)-5-benzofuranol] | 51 nM | – | –

Reference: patent US4966907A, “6-substituted 5-hydroxy-2,3-dihydrobenzofurans as inhibitors of leukotriene biosynthesis” (Merck & Co., Inc., priority 1988, dated 1990)
